Data taken from patent US7947668B2, “Aminoalkyl sterol compounds having an anti-tumoral and neuroprotective activity” (Institut National de la Sante et de la Recherche Medicale, priority 2002, dated 2011).

Legend:
[1] = test system: T lymphocytes originating from BALB/c mouse spleens; experiment: Proliferation of T lymphocytes (tritiated thymidine incorporation); assay type: cell-based; details: C57BL/6 dendritic cells in contact with BALB/c T lymphocytes
Procedure: C57BL/6 mouse monocytes were collected as indicated in example 48.1. The dendritic cells were obtained as indicated in example 9. After transformation into CDs with the test compound, the cells are treated with an antimitotic agent (mitomycin C at 0.0006 mg/ml) and incubated for 30 minutes at 37° C., in order to block DNA synthesis in the CDs. After this treatment, the cells are washed twice with RPMI 1640 medium supplemented with 10% fetal calf serum.
BALB/c mouse spleens were also collected and treated as described for the preparation of the C57BL/6 mouse monocytes. The nonadherent cells, which contain the T lymphocytes, are recovered and added to the C57BL/6 mouse dendritic cells. On the fourth day of contact of the cells, tritiated thymidine is added. After incubation for 18 hours, the cells are lyzed with absolute alcohol. The precipitate is suspended in water and then filtered through a cellulose filter. The incorporation of thymidine is measured by scintillation counting (Packard Instrument, Meriden Conn., USA).
The adherent monocytes originating from mouse spleens obtained according to example 14.1 were treated with the abovementioned compound at variable doses. […] The lymphocyte proliferation is measured by measuring the incorporation of tritiated thymidine into the DNA.

A549 cells = experiment: Actin and tubulin skeleton on treated A549 cells (fluorescence microscopy); assay type: cell-based, human
Procedure: A549 cells were treated with the compound of example 9 according to the protocol described in detail in example 55; they are inoculated onto glass slides placed at the bottom of six-well culture dishes (NUNC) at a density of 50 000 cells per well in a nutrient medium of “RPMI 1640” type sold by the company “Gibco BRL”, supplemented with 10% fetal calf serum. The cells are then fixed with 3% paraformaldehyde solution and are permeabilized with a detergent solution containing 0.1% “Triton-X-100” in PBS. The actin skeleton of the treated cells was observed by labeling the cells with phalloidin-FITC.
In this case, the A549 cells are labeled with an anti-γ-tubulin antibody and developed with an anti-IgG-FITC antibody.

`CC(C)CCC[C@@H](C)[C@H]1CC[C@H]2[C@@H]3C[C@@H](NCCc4c[nH]cn4)[C@@]4(O)C[C@@H](O)CC[C@]4(C)[C@H]3CC[C@]12C` [Example 9, cholestane-3β,5α-diol-6β-N-[2-ethylamino(1H-imidazol-4-yl)]] was tested. Which “stimulation of the T lymphocyte proliferation (factor)” value [1] did it give?
Its value is 5.

And the “actin skeleton of treated A549 cells (phalloidin-FITC)” value (A549 cells; FIG. 12 photograph 2)?
Its value is “appearance of refringent vesicles, which are surrounded by actin”.

And the “tubulin skeleton of treated A549 cells (anti-γ-tubulin antibody)” value (A549 cells; FIG. 13 photograph 2)?
Its value is “presence of intracytoplasmic vacuoles, which are not surrounded with γ-tubulin”.
